Legend:
[1] = test system: γ-secretase-mediated proteolysis of C99 (CG cells); assay: Cell-based C99-specific γ-secretase assay (CG cells, Gal4 luciferase reporter); conditions: 1 μM inhibitor, 1 μg/ml tetracycline, 37° C., 24 h
Protocol: (A) Adherent CG and NG cells (20,000 cells/well) were treated with 1 μM of the indicated ErbB1/2-selective tyrosine kinase inhibitors in the presence of 1 μg/ml tetracycline at 37° C. for 24 h. The luminescence signals emitted by cells treated with vehicle alone (Ctrl, 0.1% DMSO) were referred to as 100% relative luminescence signals. The luminescence signals generated by γ-secretase-mediated proteolysis of C99 (CG) or NΔE (NG) were determined using the Steady-Glo luciferase assay reagent. (B) HEK293 overexpressing C99-YFP cells were treated with 1 μM of the indicated ErbB1/2 tyrosine kinase inhibitors at 37° C. for 24 h. Clarified lysates were analyzed by Western blotting and quantified by Image J. (C) HEK293 overexpressing ErbB1 ErbB2, CFP-tagged C99, and YFP-tagged NΔE cells were infected with gene-targeting shRNA-encoding lentivirus (shErbB1 or shErbB2) at 37° C. for 48 h. Clarified lysates containing equivalent amounts of proteins were examined by Western blotting and quantified by Image J. (D) CG and NG cells were infected with gene-targeting shRNA-encoding lentivirus at 37° C. for 48 h. Following induction with 1 μg/ml tetracycline for 24 h. […] Data are shown as the mean±SD from three independent experiments, and were analyzed by Student's t-tests. * p<0.05. […]

[2] = test system: APPswe/PS1ΔE9 double transgenic mice; assay: Brain Aβ40 and Aβ42 ELISA in treated APPswe/PS1ΔE9 mice; format: in vivo, mouse; conditions: 5 mg/kg daily oral, 20 days, normalized to total protein
[3] = test system: APPswe/PS1ΔE9 double transgenic mice; assay: Co-immunoprecipitation (anti-BECN1) of brain lysates of treated APPswe/PS1ΔE9 mice; format: in vivo, mouse
[4] = test system: HEK293 cells overexpressing C99-YFP; assay: Western blotting of HEK293 cells overexpressing C99-YFP; format: cell-based; conditions: 1 μM, 37° C., 24 h
Protocol: (A) Adherent CG and NG cells (20,000 cells/well) were treated with 1 μM of the indicated ErbB1/2-selective tyrosine kinase inhibitors in the presence of 1 μg/ml tetracycline at 37° C. for 24 h. The luminescence signals emitted by cells treated with vehicle alone (Ctrl, 0.1% DMSO) were referred to as 100% relative luminescence signals. The luminescence signals generated by γ-secretase-mediated proteolysis of C99 (CG) or NΔE (NG) were determined using the Steady-Glo luciferase assay reagent. (B) HEK293 overexpressing C99-YFP cells were treated with 1 μM of the indicated ErbB1/2 tyrosine kinase inhibitors at 37° C. for 24 h. Clarified lysates were analyzed by Western blotting and quantified by Image J. (C) HEK293 overexpressing ErbB1 ErbB2, CFP-tagged C99, and YFP-tagged NΔE cells were infected with gene-targeting shRNA-encoding lentivirus (shErbB1 or shErbB2) at 37° C. for 48 h. Clarified lysates containing equivalent amounts of proteins were examined by Western blotting and quantified by Image J. (D) CG and NG cells were infected with gene-targeting shRNA-encoding lentivirus at 37° C. for 48 h. Following induction with 1 μg/ml tetracycline for 24 h. Cells infected with empty lentivirus (w/o) or LacZ-targeting shRNA lentivirus (shCtrl_a and shCtrl_b) were included as controls. Data are shown as the mean±SD from three independent experiments, and were analyzed by Student's t-tests. * p<0.05.
Clarified lysates containing equivalent amounts of proteins were analyzed by Western blotting. (B, C) HEK293 overexpressing CFP-LC3 cells were infected with lentivirus encoding shRNA targeting LacZ ErbB2, or ErbB2 plus ATG5 for 48 h. The autophagy induction was analyzed by fluorescence confocal microscopy. The number of CFP-LC3 puncta per cell was quantified. The levels of LC3-I, LC3-II, and GAPDH were analyzed by Western blotting. (D, E) HEK293 cells overexpressing ErbB1, ErbB2, CFP-tagged C99, and YFP-tagged NΔE were infected with lentivirus encoding shRNA targeting LacZ (Ctrl), ErbB1, or ErbB2 for 48 h. Infection mixtures were replaced with 2 ml of fresh culture medium, and infected cells were then incubated at 37° C. for an additional 24 h. The levels of LC3-1, LC3-II, and p62 were analyzed by Western blotting and quantified by NIH Image J. Conditional media were harvested and processed for determination of secreted Aβ40 using a colourimetric Aβ40-specific ELISA kit. (F, G) HEK293 cells overexpressing C99-YFP were treated with vehicle (DMSO) or 1 μM CL-387,785 at 37° C. for 24 h and analyzed by Western blotting. Conditional media were harvested for determination of secreted Aβ40. The quantitative data are shown as mean±SD from three independent experiments, and were analyzed by Student's t-tests. * p<0.05.
Preparation of cell extracts. To prepare total cell-free extracts, we harvested cells in 6-well microplates with ice-cold PBS containing 20 mM EDTA, and then pelleted the cells by centrifugation. PBS-washed cells were resuspended in a lysis buffer containing 1% Triton X-100, 50 mM Tris-HCl pH 7.5, 150 mM NaCl, 25 mM β-glycerophosphate, 1 mM Na3VO4, and protease inhibitor cocktail set V (Merck). Following the removal of cell debris by centrifugation, clarified lysates were processed for immunoprecipitation, Western blotting, or quantification of BCA protein content.
Western blotting analysis. Protein concentration was measured with the BCA Protein Assay Kit (Pierce). […]

CC#CC(=O)Nc1ccc2ncnc(Nc3cccc(Br)c3)c2c1 [CL-387,785, N-[4-[(3-bromophenyl)amino]-6-quinazolinyl]-2-butynamide]
processing of C99 (luminescence signal in CG cells) [1]: effectively blocked the processing of C99
reduction in the level of Aβ40 in brain [2]: approximately 40%
reduction in the level of Aβ42 in brain [2]: approximately 40%
phosphorylation of EGFR(ErbB1) in brain ([3]; 5 mg/kg daily oral, 20 days): inhibited
interaction between ErbB2 with Beclin-1 in brain ([3]; 5 mg/kg daily oral, 20 days, co-immunoprecipitation): drastically suppressed
formation of the Beclin1-Vps34-Vps15 complex ([3]; summary statement for the compound (FIG. 7)): rescues the formation
LC3-II/LC3-I ratio [4]: concurrent increase
level of AICD [4]: concomitantly decreased
level of C99 [4]: concomitantly decreased
level of ErbB2 [4]: concomitantly decreased
level of p62 [4]: significant reduction

From US10576082B2, “ErbB2 regulates autophagic flux to modulate the proteostasis of APP-CTFs in alzheimer's disease” (Academia Sinica, priority 2016, dated 2020)
